{"source": "patent US6852731B2", "about": "“Antiviral compounds” (Pfizer, priority 2002, dated 2005)", "data": [{"values": [{"compound": "CN(Cc1sc2c(=O)c(C(=O)NCc3ccc(Cl)cc3)cn(C)c2c1COCC[Si](C)(C)C)CC(O)c1cnccn1", "note": "(stereo not drawn)", "melting point": "154.9 to 155.5 °C"}, {"compound": "COCCOCc1c(CN(C)CC(O)c2cccnc2)sc2c(=O)c(C(=O)NCc3ccc(Cl)cc3)cn(C)c12", "note": "(stereo not drawn) [Example 72, N-(4-Chlorobenzyl)-2-{[(2-hydroxy-2-pyridin-3-ylethyl)(methyl)amino]methyl}-3-[(2-methoxyethoxy)methyl]-4-methyl-7-oxo-4,7-dihydrothieno[3,2-b]pyridine-6-carboxamide]", "melting point": "129 to 132 °C"}, {"compound": "COCCOCc1c(CN(C)CC(O)c2cccc(OC)c2)sc2c(=O)c(C(=O)NCc3ccc(Cl)cc3)cn(C)c12", "note": "(stereo not drawn) [Example 73, N-(4-Chlorobenzyl)-2-{[[2-hydroxy-2-(3-methoxyphenyl)ethyl](methyl)amino]methyl}-3-[(2-methoxyethoxy)methyl]-4-methyl-7-oxo-4,7-dihydrothieno[3,2-b]pyridine-6-carboxamide]", "melting point": "135 to 138 °C"}, {"compound": "COCCOCc1c(CN(C)C[C@@H](O)c2ccco2)sc2c(=O)c(C(=O)NCc3ccc(Cl)cc3)cn(C)c12", "note": "[Example 74, N-(4-Chlorobenzyl)-2-{[[(2R)-2-(2-furyl)-2-hydroxyethyl](methyl)amino]methyl}-3-[(2-methoxyethoxy)methyl]-4-methyl-7-oxo-4,7-dihydrothieno[3,2-b]pyridine-6-carboxamide]", "melting point": "146 to 147 °C"}, {"compound": "COCCOCc1c(CN(C)CC(O)c2c[nH]c3ccccc23)sc2c(=O)c(C(=O)NCc3ccc(Cl)cc3)cn(C)c12", "note": "(stereo not drawn) [Example 75, N-(4-Chlorobenzyl)-2-{[[2-hydroxy-2-(1H-indol-3-yl)ethyl](methyl)amino]methyl}-3-[(2-methoxyethoxy)methyl]-4-methyl-7-oxo-4,7-dihydrothieno[3,2-b]pyridine-6-carboxamide]", "melting point": "167 to 169 °C"}, {"compound": "COCCOCc1c(CN(C)CC(O)c2ccccn2)sc2c(=O)c(C(=O)NCc3ccc(Cl)cc3)cn(C)c12", "note": "(stereo not drawn) [Example 76, N-(4-Chlorobenzyl)-2-{[(2-hydroxy-2-pyridin-2-ylethyl)(methyl)amino]methyl}-3-[(2-methoxyethoxy)methyl]-4-methyl-7-oxo-4,7-dihydrothieno[3,2-b]pyridine-6-carboxamide]", "melting point": "150.5 to 152 °C"}, {"compound": "COCCOCc1c(CN(C)CC(O)c2ncccn2)sc2c(=O)c(C(=O)NCc3ccc(Cl)cc3)cn(C)c12", "note": "(stereo not drawn) [Example 77, N-(4-Chlorobenzyl)-2-{[(2-hydroxy-2-pyrimidin-2-ylethyl)(methyl)amino]methyl}-3-[(2-methoxyethoxy)methyl]-4-methyl-7-oxo-4,7-dihydrothieno[3,2-b]pyridine-6-carboxamide]", "melting point": "146.5 to 147.5 °C"}, {"compound": "COCCOCc1c(CN(C)CC(O)c2ccc(C#N)s2)sc2c(=O)c(C(=O)NCc3ccc(Cl)cc3)cn(C)c12", "note": "(stereo not drawn) [Example 80, N-(4-Chlorobenzyl)-2-{[[2-(5-cyanothien-2-yl)-2-hydroxyethyl](methyl)amino]methyl}-3-[(2-methoxyethoxy)methyl]-4-methyl-7-oxo-4,7-dihydrothieno[3,2-b]pyridine-6-carboxamide]", "melting point": "163 to 164 °C"}, {"compound": "C=CCOCc1c(CN(C)C[C@@H](O)c2ccccn2)sc2c(=O)c(C(=O)NCc3ccc(Cl)cc3)cn(C)c12", "note": "[Example 81, 3-[(Allyloxy)methyl]-N-(4-chlorobenzyl)-2-{[[(2R)-2-hydroxy-2-pyridin-2-ylethyl](methyl)amino]methyl}-4-methyl-7-oxo-4,7-dihydrothieno[3,2-b]pyridine-6-carboxamide]", "melting point": "125 to 127 °C"}, {"compound": "CN(Cc1sc2c(=O)c(C(=O)NCc3ccc(Cl)cc3)cn(C)c2c1CO)CC(O)c1cnccn1", "note": "(stereo not drawn) [Example 84, N-(4-Chlorobenzyl)-3-(hydroxymethyl)-2-{[(2-hydroxy-2-pyrazin-2-ylethyl)(methyl)amino]methyl}-4-methyl-7-oxo-4,7-dihydrothieno[3,2-b]pyridine-6-carboxamide]", "melting point": "211 to 213 °C"}, {"compound": "CN(Cc1sc2c(=O)c(C(=O)NCc3ccc(Cl)cc3)cn(C)c2c1CO)CC(O)c1ccc(C#N)s1", "note": "(stereo not drawn) [Example 85, N-(4-Chlorobenzyl)-2-{[[2-(5-cyanothien-2-yl)-2-hydroxyethyl](methyl)amino]methyl}-3-(hydroxymethyl)-4-methyl-7-oxo-4,7-dihydrothieno[3,2-b]pyridine-6-carboxamide]", "melting point": "188 to 190 °C"}, {"compound": "COc1cccc(C(O)CN(C)Cc2sc3c(=O)c(C(=O)NCc4ccc(Cl)cc4)cn(C)c3c2CO)c1", "note": "(stereo not drawn) [Example 86, N-(4-Chlorobenzyl)-2-{[[2-hydroxy-2-(3-methoxyphenyl)ethyl](methyl)amino]methyl}-3-(hydroxymethyl)-4-methyl-7-oxo-4,7-dihydrothieno[3,2-b]pyridine-6-carboxamide]", "melting point": "165 to 168 °C"}, {"compound": "CN(Cc1sc2c(=O)c(C(=O)NCc3ccc(Cl)cc3)cn(C)c2c1CO)CC(O)c1ccc2ccccc2n1", "note": "(stereo not drawn) [Example 89, N-(4-Chlorobenzyl)-3-(hydroxymethyl)-2-{[(2-hydroxy-2-quinolin-2-ylethyl)(methyl)amino]methyl}-4-methyl-7-oxo-4,7-dihydrothieno[3,2-b]pyridine-6-carboxamide]", "melting point": "196 to 198 °C"}, {"compound": "CN(Cc1sc2c(=O)c(C(=O)NCc3ccc(Cl)cc3)cn(C)c2c1CN)C[C@@H](O)c1ccccn1", "note": "[Example 91, 3-(Aminomethyl)-N-(4-chlorobenzyl)-2-{[[(2R)-2-hydroxy-2-pyridin-2-ylethyl](methyl)amino]methyl}-4-methyl-7-oxo-4,7-dihydrothieno[3,2-b]pyridine-6-carboxamide]", "melting point": "144 to 148 °C"}, {"compound": "CN(Cc1sc2c(=O)c(C(=O)NCc3ccc(Cl)cc3)cn(C)c2c1CNS(C)(=O)=O)C[C@@H](O)c1ccccn1", "note": "[Example 92, N-(4-Chlorobenzyl)-2-{[[(2R)-2-hydroxy-2-pyridin-2-ylethyl](methyl)amino]methyl}-4-methyl-3-{[(methylsulfonyl)amino]methyl}-7oxo-4,7-dihydrothieno[3,2-b]pyridine-6-carboxamide]", "melting point": "171 to 177 °C (dec.)"}]}]}
